Laboratory results taken from paper PMC1624820, “Inhibition of secreted phospholipase A2 by neuron survival and anti-inflammatory peptide CHEC-9” (Journal of Neuroinflammation, 2006).
“Also recorded” adds a separate entry of the source. Read-outs that look alike come from different tables or passages of the source.

Legend:
[1] = test system: Human Plasma sPLA2; assay: 10-pyrene fluorescence enzyme assay, human plasma sPLA2 (ex vivo); format: biochemical; settings: for Vmax: without inhibitor 2.07; for Km: without inhibitor 66.52
Method: (§1) Purified secreted phospholipase A2 group I from the venom of the Mozambique cobra (Naja mossambica) was obtained from Sigma. Blood was obtained from the trunk of 20 female Sprague Dawley rats (200–250 g) after decapitation, and by venipunture of 14 healthy adult humans of both sexes. Blood samples from 8 additional rats were collected following subcutaneous injections of 100 μg CHEC-9 or DMEM vehicle. These rats were placed in a standard rat restrainer during the collection period and the samples obtained via a tail nick. All specific procedures of this study were approved by both the Institutional Animal Care and Use Committee and by Institutional Review Board of Drexel University College of Medicine. Blood samples were treated with citrate-phosphate-dextrose anticoagulant (1:10, Sigma), and plasma prepared by centrifugation, before freezing at -80° until used in the enzyme assays. For the ex vivo studies, individual plasma samples were pooled from 3–7 rats or 3–5 humans.
(§2) Enzyme assays were conducted at ambient temperature (22–25°) using a Victor 3 fluorescent reader (Perkin Elmer, Nutley NJ). The substrate was 1-Palmitoyl-2-Pyrenedecanoyl Phosphatidylcholine ("10-pyrene", Caymen Chemical, Ann Arbor MI) a substrate for all calcium dependent PLA2s with the exception of cPLA2 and PAF-AH. The substrate (supplied in chloroform) was dried under a nitrogen stream, quickly dissolved in ethanol, and stored at -20° prior to use. Substrate solutions were prepared in reaction buffer consisting of 50 mM tris (pH = 7.4), 0.1 M NaCl, 2 mM CaCl2, 0.25% fatty acid-free albumin (Sigma) and the CHEC-9 peptide at the indicated concentrations. CHEC-9 ([…]) was synthesized by Celtek, (Nashville, TN), purified and cross-linked as described previously, and aliquots stored in tris buffer or DMEM vehicles at -80°. The 10-pyrene substrate forms phospholipids vesicles in aqueous solutions [13], and upon hydrolysis, releases 10-pyrenyldecanoic acid. This product is fluorescent in the presence of albumin and was measured at 350 nm excitation, 405 nm emission. Plasma samples were 20% final concentration in the reaction mixture, and all enzyme reactions were initiated with the addition of the substrate solution to the sPLA2 containing samples. Kinetic parameters including the properties of CHEC-9 were determined by measuring the initial velocities (Vo) of enzyme reactions (within 2 minutes of initiation). […] This rate is proportional to the concentration of active enzyme in the plasma if product formation during this period is linear with respect to time (see Fig. 6). In most experiments, relative fluorescent units (RFU) were converted to product concentration using a pyrenyldecanoic acid standard curve (Molecular Probes, Eugene, OR). […] Individual reactions were carried out in duplicate or triplicate and kinetic curves were produced using 5–6 substrate concentrations, with or without peptide, reacted simultaneously. […] Km and Vmax and r^2 were determined with regression software (Prism) from Graphpad (San Diego, CA).
(§3) The characteristics of CHEC-9 inhibition were determined using both classical characterization of inhibitor types, i.e., the direction of changes in Km and Vmax, and more recent reports that derive consistent relationships between the extent of enzyme inhibition and substrate concentration. […] We have repeated, combined, and rearranged some of their equations below in order to show the calculations used in the present experiments.
(§4) KiNR is the apparent inhibition constant based on inhibition degree and is independent of inhibitor classification. This value varies predictably with substrate concentration for different inhibitor types. It is defined as: […]

[2] = test system: cerebral cortex lesions; parameters: method as in PMID 15684658; settings: rat, ref [6], cited from earlier work
[3] = biological target: sPLA2 group I; assay: 10-pyrene fluorescence enzyme assay, sPLA2 group I (Lineweaver-Burke / Michaelis-Menton); format: biochemical, Naja mossambica; settings: for Km: without inhibitor 18.80; for Km / Vmax: 5 nM sPLA2, 10-pyrene 2-7 μM, nonlinear regression of Vo; for Vmax: without inhibitor 21.67; for reduction of Vo with varied enzyme concentration: sPLA2 2, 6, 10 nM, CHEC-9 0.1, 1, 10 nM
Method: as §1, §2, §3, §4

[4] = test system: sPLA2; settings: 100 μg CHEC-9 s.c.
Method: as §1, with “For the ex vivo studies, individual plasma samples were pooled from 3–7 rats or 3–5 humans.” left out
Enzyme assays were conducted at ambient temperature (22–25°) using a Victor 3 fluorescent reader (Perkin Elmer, Nutley NJ). […] This product is fluorescent in the presence of albumin and was measured at 350 nm excitation, 405 nm emission. […] Kinetic parameters including the properties of CHEC-9 were determined by measuring the initial velocities (Vo) of enzyme reactions (within 2 minutes of initiation). […] Km and Vmax and r^2 were determined with regression software (Prism) from Graphpad (San Diego, CA).

[5] = test system: sPLA2
Method: as §2, §3

[6] = test system: rat plasma sPLA2; assay: 10-pyrene fluorescence enzyme assay, rat plasma sPLA2 (ex vivo); format: biochemical, rat (Sprague Dawley)
Method: as §1
Enzyme assays were conducted at ambient temperature (22–25°) using a Victor 3 fluorescent reader (Perkin Elmer, Nutley NJ). The substrate was 1-Palmitoyl-2-Pyrenedecanoyl Phosphatidylcholine ("10-pyrene", Caymen Chemical, Ann Arbor MI) a substrate for all calcium dependent PLA2s with the exception of cPLA2 and PAF-AH. The substrate (supplied in chloroform) was dried under a nitrogen stream, quickly dissolved in ethanol, and stored at -20° prior to use. Substrate solutions were prepared in reaction buffer consisting of 50 mM tris (pH = 7.4), 0.1 M NaCl, 2 mM CaCl2, 0.25% fatty acid-free albumin (Sigma) and the CHEC-9 peptide at the indicated concentrations. CHEC-9 ([…]) was synthesized by Celtek, (Nashville, TN), purified and cross-linked as described previously, and aliquots stored in tris buffer or DMEM vehicles at -80°. The 10-pyrene substrate forms phospholipids vesicles in aqueous solutions [13], and upon hydrolysis, releases 10-pyrenyldecanoic acid. This product is fluorescent in the presence of albumin and was measured at 350 nm excitation, 405 nm emission. Plasma samples were 20% final concentration in the reaction mixture, and all enzyme reactions were initiated with the addition of the substrate solution to the sPLA2 containing samples. Kinetic parameters including the properties of CHEC-9 were determined by measuring the initial velocities (Vo) of enzyme reactions (within 2 minutes of initiation). […] Km and Vmax and r^2 were determined with regression software (Prism) from Graphpad (San Diego, CA).
The characteristics of CHEC-9 inhibition were determined using both classical characterization of inhibitor types, i.e., the direction of changes in Km and Vmax, and more recent reports that derive consistent relationships between the extent of enzyme inhibition and substrate concentration. […]

[7] = test system: sPLA2 group I; assay: native polyacrylamide gel electrophoresis, enzyme migration; parameters: species or system Naja mossambica; settings: for sPLA2 band on native gel, with peptide and substrate: 26 μM sPLA2, 40 μM CHEC-9, 560 μM substrate, 2 mM CaCl2, pH 7.4, room temperature 30 min, repeated four times
Method: Polyacrylamide gradient gels (5–15%) were run with and without SDS or reducing agents using sPLA2 group I alone or after mixing the enzyme with different combinations of the components of the reaction mixture (or their solvents). Samples prepared for the native gels were 50 μl containing 26 μM sPLA2, 40 μM CHEC-9, 560 μM 1-Palmitoyl-2-Pyrenedecanoyl Phosphatidylcholine (substrate), and 2 mM CaCl2 in 20 mM tris buffer (pH = 7.4), incubated together at room temperature for 30 min. After incubation, the samples were evaporated to 20 μl. The samples were then mixed with sample buffer containing only glycerol and bromophenol blue in 0.1 M tris (pH = 6.8) and loaded onto the gels. Following electrophoresis, the gels were washed, fixed, and stained with silver reagent according to conventional methods. The native gel experiment, using different reactant combinations run side by side (Fig. 3), was repeated four times with the same result.

[8] = CHEC-9 10.0 nM, 20% plasma, 10-pyrene 5–30 μM, pH 7.4, 22–25°
[9] = CHEC-9 50.0 nM, 20% plasma, 10-pyrene 5–30 μM, pH 7.4, 22–25°

For “CHEASAAQC [CHEC-9, nonapeptide CHEC-9 (…), internal fragment of DSEP/Dermcidin/PIF, synthesized by Celtek, purified and cross-linked]”, the “type of inhibition, human plasma” value ([1]; 20% plasma, 10-pyrene 5–30 μM) was “consistent with the properties of an uncompetitive inhibitor”, the Vmax [1, 8] was 1.42 μM/min/ml and the Km [1, 8] was 40.8 µM. For the same sequence, the Vmax [1, 9] was 0.973 μM/min/ml, the Km [1, 9] was 24.1 µM and the “change of Km and Vmax, human plasma” value ([1]; CHEC-9 10, 50 nM, 20% plasma) was “Km and Vmax of plasma samples were both reduced by CHEC-9”. For the same sequence, the Ki ([1]; Human plasma sPLA2, 20% plasma, uncompetitive, Ki = KiNR/(1+(Km/[S])), pH 7.4, 22–25°) was 0.062 ± 0.0132 µM, the “effect on enzyme activity at lowest substrate concentrations, human plasma” value ([1]; CHEC-9 10, 50 nM) was “less effective or even exaggerated the reaction at the lower substrate concentrations” and the “effect on enzyme activity at lowest substrate concentrations, human plasma” value ([1]; CHEC-9 10, 50 nM, listed as peptide) was “exaggerated enzyme activity in human plasma at the lowest substrate concentrations used”. For the same sequence, the “duration of anti-inflammatory and neuron survival effects” value ([2]; a subcutaneous injection after cerebral cortex lesions) was “at least 4 days”, the “anti-inflammatory and neuron survival effects” value ([2]; subcutaneous injection after cerebral cortex lesions) was “inhibit neuron death and aspects of the inflammatory response; also recorded: anti-inflammatory and neuron survival effects” and the “KiNR (apparent inhibition constant) vs substrate concentration” value ([3]; 10-pyrene 2-7 μM, 5 nM sPLA2, CHEC-9 0.1, 1.0, 10 nM) was “varied inversely with the substrate concentration; also recorded: overall decline in this value with increasing substrate concentration for each peptide concentration”. The Km ([3]; CHEC-9 0.1 nM, pH 7.4, 22–25°) was 10.8 µM, the Vmax ([3]; CHEC-9 0.1 nM, pH 7.4, 22–25°) was 11.54 nM/min/ng and the Km ([3]; CHEC-9 1.0 nM, pH 7.4, 22–25°) was 3.4 µM. The Vmax ([3]; CHEC-9 1.0 nM, pH 7.4, 22–25°) was 5.56 nM/min/ng, the Km ([3]; CHEC-9 10.0 nM, pH 7.4, 22–25°) was 2.26 µM and the Vmax ([3]; CHEC-9 10.0 nM, pH 7.4, 22–25°) was 4.04 nM/min/ng. The “change of Vmax and Km” value ([3]; CHEC-9 0.1-10 nM) was “reduced both the Vmax and Km of the enzyme reaction”, the “effect of CHEC-9 below 10 nM on Vo at 2 nM or 6 nM sPLA2” value ([3]; CHEC-9 lower than 10 nM, 2 nM or 6 nM sPLA2, 6 μM 10-pyrene) was “minimally effective or ineffective at 2 nM or 6 nM sPLA2” and the “effect of CHEC-9 below 10 nM on Vo at 10 nM sPLA2” value ([3]; CHEC-9 lower than 10 nM, 10 nM sPLA2, 6 μM 10-pyrene) was “produced consistent reductions in reaction velocity when used with 10 nM enzyme”. For the same sequence, the Ki ([3]; Group I sPLA2, uncompetitive, Ki = KiNR/(1+(Km/[S])), pH 7.4, 22–25°) was 0.00402 ± 0.00156 µM, the “effect on Vo at lowest substrate concentrations” value ([3]; lowest substrate concentrations) was “minimally effective, ineffective, or even potentiated Vo” and the “velocity of the enzyme reaction (Vo)” value ([3]; nanomolar CHEC-9, substrate one-half Km or less) was “reduced by nanomolar concentrations of CHEC-9”. For the same sequence, the “reduction of Vo with varied enzyme concentration” value ([3]; 6 μM 10-pyrene) was “maximal reductions of Vo occurred at 10 nM sPLA2”, the “reduction of Vo with varied enzyme concentration” value ([3]; 6 μM 10-pyrene, listed as peptide) was “most effective at the highest concentration of sPLA2, and showed declining efficacy at the lower enzyme concentrations” and the “type of inhibition, sPLA2 group I” value ([3]; substrate at one-half Km or less) was “most consistent with an uncompetitive (or anti-competitive) inhibitor of sPLA2 group I”. For the same sequence, the “level of active sPLA2 vs pre-injection” value ([4]; restrained rats, n = 4, on average) was “holding the level of active enzyme, on average, near pre-injection values”, the “significance of sPLA2 reduction vs vehicle” value ([4]; p < 0.05 by Mann Whitney test, n = 4 rats per group) was “significant differences at 30 and 60 minutes” and the specificity ([5]; plasma and venom-derived sPLA2) was “broad specificity”. The Ki ([5]; read-out: Ki (individual experiments), individual experiments repeated 5 or more times, pH 7.4, 22–25°) was less than 0.1 µM, the Ki ([5]; read-out: Ki values (all cases), venom-derived sPLA2 group I and plasma of rats and humans) was less than 0.1 µM and the “type of inhibition (all enzyme sources)” value ([5]; venom-derived sPLA2 group I, plasma of rats and humans) was “uncompetitive (or anti-competitive) enzyme inhibitor”. For the same sequence, the “inhibition with increased substrate concentrations, rat plasma” value ([6]; 25 nM CHEC-9, 20% plasma, increased substrate, mean of three reactions) was “this delay of the inhibition is not detected”, the “inhibition at very low substrate concentrations, rat plasma” value ([6]; 25 nM CHEC-9, 20% plasma, very low substrate, mean of three reactions) was “delayed inhibition at the lower substrate concentrations” and the “inhibition at lower substrate concentrations, rat plasma” value ([6]; lower substrate concentrations, product formation relatively stable) was “inhibition by CHEC-9 was readily observed”. For the same sequence, the “effect at high substrate concentrations (substrate inhibition), rat plasma” value ([6]; substrate > 25 μM) was “would sometimes reverse this inhibitory effect”, the “sPLA2 band on native gel, with peptide and substrate” value [7] was “absent or at least dramatically reduced” and the “sPLA2 band on native gel, with peptide and substrate” value ([7]; listed as peptide) was “disappeared or was markedly attenuated”. The “sPLA2 band on native gel, peptide alone” value ([7]; 26 μM sPLA2, 40 μM CHEC-9, no substrate, pH 7.4, room temperature 30 min) was “The same band appeared”.
